Measured values: the RepoRT retention time repository

Test: HILIC, Waters ACQUITY UPLC BEH Amide, 100 × 2.1 mm, 1.7 µm; A: water + 0.125% formic acid + 10 mM ammonium formate; B: 5% water + 95% acetonitrile + 0.125% formic acid + 10 mM ammonium formate; gradient (min/%B) 0/100 2/100 7.7/70 9.5/40 10.25/30 12.75/100 17/100
Conditions: stereoisomer not certain

SMILES	LC retention time [min]
NCCc1ccccc1 [Phenethylamine]	4.87
CC(=O)N1C(=O)C(=O)c2ccccc21 [Acetylisatin]	2.4
Cc1nnc2n1-c1ccc(Cl)cc1C(c1ccccc1Cl)=NC2 [Triazolam]	1.3
CCN(CC)CCOC(=O)C(O)(c1ccccc1)c1ccccc1 [Benactyzine]	2.16
CS(=O)(=O)Nc1ccc(Cc2noc(-c3ccc4[nH]cc(CCN)c4c3)n2)cc1 [L-694,247]	5.25
COc1cc(C(=O)NS(=O)(=O)c2ccccc2C)ccc1Cc1cn(C)c2ccc(NC(=O)OC3CCCC3)cc12 [Zafirlukast]	1
Nc1nc2c(ncn2CCC(CO)CO)c(=O)[nH]1 [Penciclovir]	6.71
Nc1ncnc2c1ncn2C1OC(CSCCC(N)C(=O)O)C(O)C1O (centres undefined) [S-Adenosyl-homocysteine]	8.85
CN1CCCC(n2nc(Cc3ccc(Cl)cc3)c3ccccc3c2=O)CC1 (centres undefined) [Azelastine]	2.95
Cc1onc(-c2ccccc2)c1-c1ccc(S(N)(=O)=O)cc1 [Valdecoxib]	1.01
CN(C)C(CCCN=C(N)N)C(=O)O (centres undefined) [N,N-Dimethylarginine]	9.1
CNCCC(Oc1cccc2ccccc12)c1cccs1 (centres undefined) [Duloxetine]	2.6
Cc1cnc(=O)[nH]c1N [5-Methylcytosine]	6.62
O=C1c2c(O)cc(O)cc2OC(c2ccc(O)c(O)c2)C1O (centres undefined) [Taxifolin]	1.78
CNC(C(=O)O)C(C)C (centres undefined) [N-Methylvaline]	6.99
CC(CN(C)C)CN1c2ccccc2CCc2ccccc21 (centres undefined) [Trimipramine]	2.25
CCCCCCCCC=CCCCCCCCC(=O)OCC(O)CO (centres undefined) [Monoolein]	1.19
COC(=O)CCc1ccc(OCC(O)CNC(C)C)cc1 (centres undefined) [Esmolol]	3.13
CCCCCCCCCCCCCCCCC(=O)O [Heptadecanoic acid]	3.01
O=C(O)C1CCCN1 (centres undefined) [Proline]	7.83
Cc1cc2nc[nH]c2cc1C [5,6-Dimethylbenzimidazole]	1.82
NC(=O)CCC(NC(=O)Cc1ccccc1)C(=O)O (centres undefined) [Phenylacetylglutamine]	6.03
CCCC(C)(COC(N)=O)COC(N)=O [Meprobamate]	1.25

SMILES	LC retention time [min]
O=c1ccn(C2CC(O)C(CO)O2)c(=O)[nH]1 (centres undefined) [2-Deoxyuridine]	2.96
CC12CCC(=O)C=C1CCC1C2CCC2(C)C1CCC2(O)C(=O)CO (centres undefined) [Cortodoxone]	1.15
O=C(O)Cc1c[nH]c2ccc(O)cc12 [5-Hydroxy-3-indoleacetic acid]	1.78
NCC(O)CCC(N)C(=O)O (centres undefined) [delta-Hydroxylysine]	9.77
CC(=O)OCCc1ccccc1 [Phenethylacetate]	1.02
COc1cc(C=O)ccc1O [Vanillin]	1.15
Cc1nccn1CC1CCc2c(c3ccccc3n2C)C1=O (centres undefined) [Ondansetron]	2.83
O=c1ccc2cccc(O)c2[nH]1 [2,8-Quinolinediol]	1.53
Oc1cc(O)cc(O)c1 [Phloroglucinol]	1.15
COc1ccc2c3c1OC1CC(O)C=CC31CCN(C)C2 (centres undefined) [Galanthamine]	4.62
COc1ccccc1N1CCN(CC(O)COc2cccc3ccccc23)CC1 (centres undefined) [Naftopidil]	1.99
CCC(C)C(NC(=O)CN)C(=O)O (centres undefined) [Gly-Ile]	7.67
C=COC(N)=O [Vinyl Carbamate]	1.34
O=c1cnn(C2OC(CO)C(O)C2O)c(=O)[nH]1 (centres undefined) [6-Azuridine]	4.31
O=C1CCNC(=O)N1 [5,6-Dihydrouracil]	1.77
COC1C(O)C(CO)OC1n1cnc2c(=O)[nH]c(N)nc21 (centres undefined) [2'-O-Methylguanosine]	5.72
Cc1cn(C2OC(CO)C(O)C2O)c(=S)[nH]c1=O (centres undefined) [5-Methyl-2-thiouridine]	1.98
CCNC(=O)CCC(N)C(=O)O (centres undefined) [Theanine]	7.66
CCCc1nc2c(C)cc(-c3nc4ccccc4n3C)cc2n1Cc1ccc(-c2ccccc2C(=O)O)cc1 [Telmisartan]	1.25
CCOC(=O)C1=C(COCCN)NC(C)=C(C(=O)OC)C1c1ccccc1Cl (centres undefined) [Amlodipine]	4.24
CNc1ncnc2c1ncn2C1OC(CO)C(O)C1O (centres undefined) [6-Methyladenosine]	3.56
Nc1ccn(C2CSC(CO)O2)c(=O)n1 (centres undefined) [Lamivudine]	3.4
CSCCCN [3-Methylthiopropylamine]	5.16

SMILES	LC retention time [min]
CC(CO)CCNc1ncnc2nc[nH]c12 (centres undefined) [Dihydrozeatin]	2.99
CC(C=CC1=C(C)CCCC1(C)C)=CC=CC(C)=CC(=O)O [Retinoic acid]	1.11
Cc1cccc(C)c1NC(=O)C1CCCCN1C (centres undefined) [Mepivacaine]	2.96
COCC1=C(C(=O)OC(C)OC(=O)OC(C)C)N2C(=O)C(NC(=O)C(=NOC)c3csc(N)n3)C2SC1 (centres undefined)	1.12
O=C(O)C(O)c1ccc(O)c(O)c1 (centres undefined) [3,4-Dihydroxymandelic acid]	2.3
CC(CN)C(=O)O (centres undefined) [3-Aminoisobutyric acid]	7.4
O=c1[nH]cnc2c1ncn2C1CCC(CO)O1 (centres undefined) [2',3'-Dideoxyinosine]	3.44
NC(Cn1ccc(=O)[nH]c1=O)C(=O)O (centres undefined) [Willardiine]	8.72
CC(=O)OCC[C@H](N)C(=O)O [O-Acetyl-L-homoserine]	7.6
CC1C(=O)Nc2ccccc21 (centres undefined) [3-Methyloxyindole]	1.07
CCOc1cc(CC(=O)NC(CC(C)C)c2ccccc2N2CCCCC2)ccc1C(=O)O (centres undefined) [Repaglinide]	1.01
CN1C2CCC1C(C(=O)O)C(O)C2 (centres undefined) [Ecgonine]	7.61
CN(C)C(N)=NCCCC(N)C(=O)O (centres undefined) [ADMA]	8.55
OCc1cc(C(O)CNCCCCCCOCCCCc2ccccc2)ccc1O (centres undefined) [Salmeterol]	4.75
COc1ccc2[nH]cc(CC(=O)O)c2c1 [5-Methoxy-3-indoleacetic acid]	1.32
CC(NC(C)(C)C)C(=O)c1cccc(Cl)c1 (centres undefined) [Bupropion]	2.22
COc1c2ccoc2cc2oc(=O)ccc12 [5-Methoxypsoralen]	1.07
CC12CCC3C4CCC(=O)C=C4CCC3C1CCC2O (centres undefined) [Nandrolone]	1.06
CC(C)CC(N)C(=O)N1CCCC1C(=O)O (centres undefined) [Leu-Pro]	7.32
CC1OC(OCC2OC(Oc3c(-c4ccc(O)cc4)oc4cc(O)cc(O)c4c3=O)C(O)C(O)C2O)C(O)C(O)C1O (centres undefined) [Kaempferol-3-O-rutinoside]	6.09
O=C(O)CP(=O)(O)O [Phosphonoacetic acid]	9.73
CNC(CCC(=O)O)C(=O)O (centres undefined) [N-Methylglutamic acid]	8.32
COC1C=COC2(C)Oc3c(C)c(O)c4c(O)c(c(C=NN5CCN(C6CCCC6)CC5)c(O)c4c3C2=O)NC(=O)C(C)=CC=CC(C)C(O)C(C)C(O)C(C)C(OC(C)=O)C1C (centres undefined) [Rifapentine]	1.81
